Data set [1] deals with T1, Alpha-2A adrenergic receptor (Homo sapiens) (UniProt P08913).
T1 sequence (whole entry): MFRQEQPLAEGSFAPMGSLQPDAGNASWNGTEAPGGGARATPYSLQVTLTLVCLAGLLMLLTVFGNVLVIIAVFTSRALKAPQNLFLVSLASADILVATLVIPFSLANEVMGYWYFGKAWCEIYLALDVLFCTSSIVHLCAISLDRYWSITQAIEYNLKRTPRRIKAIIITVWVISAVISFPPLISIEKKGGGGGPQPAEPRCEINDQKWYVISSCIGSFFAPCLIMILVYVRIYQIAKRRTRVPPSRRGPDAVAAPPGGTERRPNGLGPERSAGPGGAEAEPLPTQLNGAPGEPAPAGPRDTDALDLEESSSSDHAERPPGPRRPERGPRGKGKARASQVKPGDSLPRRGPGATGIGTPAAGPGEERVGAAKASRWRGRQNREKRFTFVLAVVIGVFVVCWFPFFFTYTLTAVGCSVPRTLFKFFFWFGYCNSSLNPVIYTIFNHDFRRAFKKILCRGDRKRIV
To be noted: CHO, 10000 nM.

For data set [2], the target named is T2, Alpha-2B adrenergic receptor (Homo sapiens) (UniProt P18089).
T2 sequence (whole entry): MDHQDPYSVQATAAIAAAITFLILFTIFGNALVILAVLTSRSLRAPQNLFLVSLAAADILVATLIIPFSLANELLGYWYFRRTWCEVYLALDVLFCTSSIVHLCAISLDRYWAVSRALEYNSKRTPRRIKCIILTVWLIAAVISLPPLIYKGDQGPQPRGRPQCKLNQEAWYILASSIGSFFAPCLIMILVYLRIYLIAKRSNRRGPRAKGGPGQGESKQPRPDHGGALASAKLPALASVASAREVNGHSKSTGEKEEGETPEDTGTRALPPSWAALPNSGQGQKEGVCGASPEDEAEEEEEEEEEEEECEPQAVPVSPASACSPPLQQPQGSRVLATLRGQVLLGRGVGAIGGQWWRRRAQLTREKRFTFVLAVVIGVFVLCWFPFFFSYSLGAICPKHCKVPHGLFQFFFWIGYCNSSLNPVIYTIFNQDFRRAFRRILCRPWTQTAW
To be noted: CHO, 10000 nM.

Data set [3] has as its target Delta-type opioid receptor (Homo sapiens, UniProt P41143). Nature of the data set: Displacement of [3H]DADLE from human recombinant delta opioid receptor expressed in rat Chem-1 (RBL) cell membranes at 100 nM incubated for 60 mins relative to control. For orientation: Loss of bound radioactivity is the signal in a displacement assay; it reports binding, not function.

For data set [4], the target named is T3, Alpha-1D adrenergic receptor (Homo sapiens) (UniProt P25100).
T3 sequence (whole entry): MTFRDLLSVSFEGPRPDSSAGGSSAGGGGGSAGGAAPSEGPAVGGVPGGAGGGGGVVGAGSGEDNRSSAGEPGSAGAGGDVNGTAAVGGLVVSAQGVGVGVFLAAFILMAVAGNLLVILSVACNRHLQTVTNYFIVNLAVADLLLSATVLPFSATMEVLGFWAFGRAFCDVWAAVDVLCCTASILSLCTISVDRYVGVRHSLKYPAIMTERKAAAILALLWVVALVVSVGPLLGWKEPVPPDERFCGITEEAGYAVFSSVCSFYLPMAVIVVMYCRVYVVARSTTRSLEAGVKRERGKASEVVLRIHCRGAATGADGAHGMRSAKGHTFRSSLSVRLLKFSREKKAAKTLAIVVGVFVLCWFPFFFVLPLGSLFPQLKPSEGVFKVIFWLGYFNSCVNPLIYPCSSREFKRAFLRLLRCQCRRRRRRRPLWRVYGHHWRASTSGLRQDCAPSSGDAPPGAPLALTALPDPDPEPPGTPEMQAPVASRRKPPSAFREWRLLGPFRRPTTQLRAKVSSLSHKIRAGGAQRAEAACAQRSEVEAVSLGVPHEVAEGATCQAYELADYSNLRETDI
To be noted: CHO, 100 nM.

For data set [5] the following is noted: human, microsomes, 1 h.
Data set [6] concerns the target T4, Kappa-type opioid receptor (Homo sapiens, UniProt P41145). To be noted: 100 nM.
The target of data set [7] is Nociceptin receptor (Homo sapiens) (UniProt P41146). To be noted: 10000 nM.
Data set [8] deals with T5, Alpha-1A adrenergic receptor (Homo sapiens) (UniProt P35348).
T5 sequence (whole entry): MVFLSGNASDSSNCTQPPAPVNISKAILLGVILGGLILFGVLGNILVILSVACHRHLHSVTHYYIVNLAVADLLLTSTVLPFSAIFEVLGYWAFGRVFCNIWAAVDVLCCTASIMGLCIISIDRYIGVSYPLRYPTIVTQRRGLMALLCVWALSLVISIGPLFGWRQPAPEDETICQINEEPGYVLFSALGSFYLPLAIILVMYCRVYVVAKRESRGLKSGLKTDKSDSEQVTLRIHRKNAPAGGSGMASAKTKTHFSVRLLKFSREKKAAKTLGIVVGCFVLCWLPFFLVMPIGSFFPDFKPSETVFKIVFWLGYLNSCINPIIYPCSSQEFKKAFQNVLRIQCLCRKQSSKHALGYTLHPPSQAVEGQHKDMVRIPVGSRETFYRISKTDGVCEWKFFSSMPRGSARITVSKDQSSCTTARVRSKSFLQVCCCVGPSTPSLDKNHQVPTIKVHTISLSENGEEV
Particulars: CHO, 10000 nM.

For data set [9] the following is noted: human, microsomes, 1 µM.
For data set [10], the target named is T4, Kappa-type opioid receptor. Briefly: Displacement of [3H]U69,593 from human recombinant kappa opioid receptor expressed in rat RBL cell membranes incubated for 60 mins.
The target of data set [11] is T6, Alpha-1B adrenergic receptor (Homo sapiens) (UniProt P35368).
T6 sequence (whole entry): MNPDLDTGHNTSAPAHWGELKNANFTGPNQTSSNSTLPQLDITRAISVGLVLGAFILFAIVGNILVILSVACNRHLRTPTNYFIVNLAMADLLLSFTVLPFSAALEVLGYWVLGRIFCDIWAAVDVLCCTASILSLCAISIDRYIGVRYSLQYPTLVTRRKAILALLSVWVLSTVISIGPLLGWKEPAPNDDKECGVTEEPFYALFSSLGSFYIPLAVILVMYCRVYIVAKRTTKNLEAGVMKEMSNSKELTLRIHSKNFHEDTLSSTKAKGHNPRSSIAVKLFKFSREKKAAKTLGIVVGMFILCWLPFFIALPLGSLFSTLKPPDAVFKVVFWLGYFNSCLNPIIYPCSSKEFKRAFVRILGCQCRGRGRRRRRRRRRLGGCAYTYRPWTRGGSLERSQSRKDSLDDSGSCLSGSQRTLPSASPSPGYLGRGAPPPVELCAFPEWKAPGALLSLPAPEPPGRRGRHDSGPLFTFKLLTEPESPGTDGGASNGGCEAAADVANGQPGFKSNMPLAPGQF
To be noted: CHO, 10000 nM.

The conditions of data set [12]: human, plasma, 1 µM.

One may read the inhibition as the change of the read-out against control, counted positive when it falls. The term Ki denotes a measure of affinity in units of concentration, obtained from inhibition or displacement.

T4 sequence (P41145 whole entry): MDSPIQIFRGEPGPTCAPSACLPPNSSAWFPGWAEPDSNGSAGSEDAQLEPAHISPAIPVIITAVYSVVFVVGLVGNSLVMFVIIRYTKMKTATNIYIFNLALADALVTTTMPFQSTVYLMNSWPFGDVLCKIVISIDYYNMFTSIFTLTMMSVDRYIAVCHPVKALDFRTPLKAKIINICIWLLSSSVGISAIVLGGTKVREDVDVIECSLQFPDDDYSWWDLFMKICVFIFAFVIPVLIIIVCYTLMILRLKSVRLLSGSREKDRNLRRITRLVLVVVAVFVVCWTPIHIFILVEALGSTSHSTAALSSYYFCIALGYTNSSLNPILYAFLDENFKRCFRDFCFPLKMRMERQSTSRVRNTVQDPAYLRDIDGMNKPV
Chain of Nociceptin receptor (Homo sapiens) (P41146 whole entry): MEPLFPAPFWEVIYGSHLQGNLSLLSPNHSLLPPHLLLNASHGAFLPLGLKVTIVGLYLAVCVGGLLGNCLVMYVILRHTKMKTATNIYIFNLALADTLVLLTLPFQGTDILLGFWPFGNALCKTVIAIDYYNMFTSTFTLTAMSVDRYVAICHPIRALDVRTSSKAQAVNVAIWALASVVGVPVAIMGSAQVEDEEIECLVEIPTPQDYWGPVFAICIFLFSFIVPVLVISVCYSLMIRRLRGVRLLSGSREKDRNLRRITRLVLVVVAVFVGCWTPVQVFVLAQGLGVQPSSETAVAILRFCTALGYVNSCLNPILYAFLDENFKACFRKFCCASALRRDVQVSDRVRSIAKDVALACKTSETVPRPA
Chain of Delta-type opioid receptor (P41143 whole entry): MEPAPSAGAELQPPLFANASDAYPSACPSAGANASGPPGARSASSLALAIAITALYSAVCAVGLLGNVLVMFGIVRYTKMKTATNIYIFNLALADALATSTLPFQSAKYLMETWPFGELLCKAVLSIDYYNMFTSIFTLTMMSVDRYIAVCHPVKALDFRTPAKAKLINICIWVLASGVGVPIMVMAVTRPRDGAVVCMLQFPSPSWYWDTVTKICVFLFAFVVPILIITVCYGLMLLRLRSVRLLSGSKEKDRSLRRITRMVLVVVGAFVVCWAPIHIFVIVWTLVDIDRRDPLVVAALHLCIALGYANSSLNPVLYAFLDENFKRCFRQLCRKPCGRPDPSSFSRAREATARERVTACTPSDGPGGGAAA

Take `CC[C@@H]1CN2CCc3c([nH]c4cccc(OC)c34)[C@H]2C[C@@H]1/C(=C\OC)C(=O)OC`: the inhibition came out at 73.1% in [1]; 67.2% in [2]; 0.6% in [3]; 6.3% in data set [4]; 61.9% in [6]; 31.8% in data set [7]. For the same molecule, the inhibition in data set [8] was found to be 81.1%; in data set [11] it was 95.6%. This molecule also had a Kel in data set [5] of 0.0166 min⁻¹. Moreover, the Fu in data set [9] is reported as 0.276; in data set [12], 0.01. In [10], the Ki is 116 nM.

Regarding `CC[C@@H]1CN2CCc3c([nH]c4cccc(OC)c34)[C@@H]2C[C@@H]1/C(=C\OC)C(=O)OC`, the inhibition in [1] is 40.4%; in data set [2], 25.1%; in [3], 0.4%; in data set [4], -2.1%; in [6], 25.2%; in [7] it was 40.8%. The inhibition in data set [8] worked out at 83.5%; in [11], 40.3%. Also, in data set [5], the Kel worked out at 0.0347 min⁻¹. Besides, the Fu in data set [9] stood at 0.307; in data set [12], 0.02. In data set [10], the Ki came out at 198 nM.

For the origin of these results see ChEMBL document CHEMBL4376854, “Investigation of the Adrenergic and Opioid Binding Affinities, Metabolic Stability, Plasma Protein Binding Properties, and Functional Effects of Selected Indole-Based Kratom Alkaloids” (J Med Chem, 2020).
